Entries after “also recorded” stand apart in the source; their conditions may differ. Like-named read-outs stand apart in the source and are kept apart here.
What was measured:
[1] = target: T1, AtMTAN1 (Arabidopsis thaliana, UniProt Q9T0I8); conditions: ref Siu et al., 2008a, cited from earlier work; for hydrolysis of substrates with extended 5′-substituents by AtMTAN1: previous kinetics studies
[2] = target: T1, AtMTAN1; test: Xanthine oxidase-coupled spectrophotometric assay of substrate hydrolysis; format: biochemical
[3] = tested on: EcMTAN; conditions: substrate SAH; no reference and method not given
[4] = target: EcMTAN-Glu174Gln (Escherichia coli, UniProt P0AF12, E174Q); test: Isothermal titration calorimetry, ligand binding to EcMTAN-Glu174Gln mutant; conditions: for N: ITC stoichiometry; for ΔH / −TΔS: pH 7.5, 25 °C
[5] = target: AtMTAN1-Glu202Gln (Arabidopsis thaliana, UniProt Q9T0I8, E202Q); test: Isothermal titration calorimetry, ligand binding to AtMTAN1-Glu202Gln mutant
[6] = tested on: AtMTAN2; conditions: ref Siu et al., 2008a; cited from earlier work
[7] = target: T1, AtMTAN1; test: Isothermal titration calorimetry, ligand binding to wild-type AtMTAN1
[8] = ITC, 50 mM sodium-HEPES pH 7.5, 25 °C, single-binding site model
[9] = ITC stoichiometry, single-binding site model

For 5′-butylthioadenosine, the “hydrolysis of substrates with extended 5′-substituents by AtMTAN1” value [1] is listed as “can hydrolyze”.

In the case of 5′-isobutylthioadenosine, the “hydrolysis of substrates with extended 5′-substituents by AtMTAN1” value [1] is listed as “can hydrolyze”.

In the case of `Nc1ncnc2c1ncn2[C@@H]1O[C@H](CSCC[C@H](N)C(=O)O)[C@@H](O)[C@H]1O` [SAH, S-adenosylhomocysteine], the “catalytic activity (hydrolysis) of AtMTAN1 towards the substrate” value ([2]; kinetics and ITC studies, 10- and 30-min durations) is reported as “does not hydrolyze; also recorded: did not detect catalytic activity”, the Km [3] is reported as 1.3 ± 0.2 µM and the Kd [4] is reported as 9.3 ± 0.4 µM. The N ([4]; single-binding site model) was 0.94 ± 0.01, the ΔH ([4]; ITC) was -7.9 ± 0.1 kcal/mol and the “−TΔS” value ([4]; ITC) was 1.0 kcal/mol. The Kd [5] was > 600 µM, the Kd [5, 8] was “No interaction is detected; also recorded: Not detected” and the “activity of AtMTAN1 towards the substrate” value [1] was “completely inactive”. The “activity towards the substrate” value [6] was 14%.

For `Nc1ncnc2[nH]cnc12` [ADE, adenine], the Kd [7] was 1.7 ± 0.1 µM, the N [7, 9] was 0.99 ± 0.003 and the ΔH ([7]; ITC, pH 7.5, 25 °C) was -10.3 ± 0.5 kcal/mol. For the same compound, the “−TΔS” value ([7]; ITC, pH 7.5, 25 °C) was 2.4 kcal/mol.

5′-methylthioadenosine [MTA] showed a Km ([2]; substrate MTA, wild-type AtMTAN1, no reference given) of 1.5 ± 0.2 µM, an N ([4]; single-binding site model) of 0.94 ± 0.01 and a Kd [4, 8] of 4.8 ± 0.4 µM. The ΔH ([4]; ITC) was -9.6 ± 0.1 kcal/mol, the “−TΔS” value ([4]; ITC) was 2.4 kcal/mol and the N [5, 9] was 0.97 ± 0.04. The Kd [5, 8] was 94.8 ± 4 µM, the ΔH ([5]; ITC, pH 7.5, 25 °C) was 5.6 ± 0.3 kcal/mol and the “−TΔS” value ([5]; ITC, pH 7.5, 25 °C) was -11.1 kcal/mol.

Reference: PMC3006453 (Journal of structural biology, 2010)
